Experimental data published in patent US4520023A, “3-(3-Iodopropargyl)-benzo-1,2,3-triazin-4-ones, and their use in microbicidal agents” (Bayer Aktiengesellschaft, priority 1982, dated 1985).
In brackets after ≈: the same amount, converted by molar mass. Where two headings read alike, the source gives them in different places.

Tests used:
slime organisms = assay: Action against slime organisms in Allens nutrient solution; assay type: cell-based; settings: 504 h
Procedure: Compounds according to the invention, dissolved in acetone, are used in concentrations of in each case 0.1 to 100 mg/liter in Allens nutrient solution (Arch. Mikrobiol. 17, 34 to 53 (1952)) containing, in 4 liters of sterile water, 0.2 g of ammonium chloride, 4.0 g of sodium nitrate, 1.0 g of dipotassium hydrogen phosphate, 0.2 g of calcium chloride, 2.05 g of magnesium sulphate, 0.02 g of iron chloride and 1% of caprolactam. Shortly beforehand, the nutrient solution is infected with slime organisms (about 10^6 germs/ml) which have been isolated from the spinning water circulations used in the preparation of polyamide.

Penicillium glaucum = assay: Agar MIC determination, Penicillium glaucum; assay type: cell-based; settings: 336 h, beerwort/peptone agar, 28° C., 2 weeks
Procedure: (§1) Active compounds according to the invention are added, in concentrations of 0.1 mg/liter to 5,000 mg/liter, to an agar prepared from beerwort and peptone. After storage at 28° C. and 60 to 70% relative atmospheric humidity for 2 weeks, the MIC is determined.

Chaetomium globosum = assay: Agar MIC determination, Chaetomium globosum; assay type: cell-based; settings: 336 h, beerwort/peptone agar, 28° C., 2 weeks
Procedure: as §1

Aspergillus niger = assay: Agar MIC determination, Aspergillus niger; assay type: cell-based; settings: 336 h, beerwort/peptone agar, 28° C., 2 weeks
Procedure: as §1

Trichoderma viride = assay: Agar MIC determination, Trichoderma viride; assay type: cell-based; settings: 336 h, beerwort/peptone agar, 28° C., 2 weeks
Procedure: as §1

Aureobasidium pullulans = assay: Agar MIC determination, Aureobasidium pullulans; assay type: cell-based; settings: 336 h, beerwort/peptone agar, 28° C., 2 weeks
Procedure: as §1

Alternaria tenuis = assay: Agar MIC determination, Alternaria tenuis; assay type: cell-based; settings: Alternaria alternata, 336 h, beerwort/peptone agar, 28° C., 2 weeks
Procedure: as §1

[1] = tested on: fungi (Aspergillus niger, Aureobasidium pullulans, Alternaria speciales, Penicillium citrinum, Stachybotrys atra, Paecilomyces varioti, Cladosporium herbarum …); assay: Testing of paint films for resistance to mould (Report 219, Defense Standards Laboratories); settings: 1.5 to 2% (or more) based on total solids content
Procedure: The test is carried out in accordance with Report 219 of the Defense Standards Laboratories Maibyrnong/Australia, as follows: smooth cardboard is coated on both sides with the product to be tested and is dried at room temperature for 8 days. For ageing, part of the coating is kept in running water at 24° C. for 24 hours, part is aerated with fresh air of 40° to 60° C. for 8 days, and part is exposed to a dry Xenon test for 110 hours. 5×5 cm sections of the test pieces thus treated are placed individually in Petri dishes on a glucose nutrient medium, and are contaminated with a spore suspension of the following fungi: Aspergillus niger, Aureobasidium pullulans, Alternaria speciales, Penicillium citrinum, Stachybotrys atra, Paecilomyces varioti, Cladosporium herbarum, Aspergillus ustus or Aspergillus flavus.
The contaminated dishes are kept at 28°-30° C. and 90-95% relative atmospheric humidity, and are evaluated after 3 weeks. Paint films are regarded as mould-resistant if the test pieces remain free from fungi after this test.
A commercially available, alkaline emulsion paint based on polyvinyl acetate is tested for mould resistance by the test method described above.

Lentinus tigrinus = assay: Agar MIC determination, Lentinus tigrinus; assay type: cell-based; settings: 336 h, beerwort/peptone agar, 28° C., 2 weeks
Procedure: as §1

Sclerophoma pityophila = assay: Agar MIC determination, Sclerophoma pityophila; assay type: cell-based; settings: Sydowia polyspora, 336 h, beerwort/peptone agar, 28° C., 2 weeks
Procedure: as §1

Coniophora cerebella = assay: Agar MIC determination, Coniophora cerebella; assay type: cell-based; settings: 336 h, beerwort/peptone agar, 28° C., 2 weeks
Procedure: as §1

[2] = slime organisms about 10^6 germs/ml, Allens nutrient solution, room temperature, 3 weeks, read-out: MIC

| MIC (slime organisms; [2]) [mg/L] | SMILES | MIC (Penicillium glaucum) [µg/mL] | MIC (Chaetomium globosum) [µg/mL] | MIC (Aspergillus niger) [µg/mL] | MIC (slime organisms; read-out: MIC in mg/liter) [mg/L] | MIC (Trichoderma viride) [µg/mL] | MIC (Aureobasidium pullulans) [µg/mL] | MIC (Alternaria tenuis) [µg/mL] | mould resistance of paint films ([1]; alkaline polyvinyl acetate emulsion paint, 3 weeks, 28°-30° C.) | mould resistance of paint films after ageing ([1]; films first subjected to running water 24 hours, fresh air 40° to 60° C. 8 days, or dry Xenon test 110 hours) | MIC (Lentinus tigrinus) [µg/mL] | MIC (Sclerophoma pityophila) [µg/mL] | MIC (Coniophora cerebella) [µg/mL] |
| --- | --- | --- | --- | --- | --- | --- | --- | --- | --- | --- | --- | --- | --- |
| 30 (≈ 86.8 µM) | O=c1c2ccc(Cl)cc2nnn1CC#CI [Active compound C, 3-(3-Iodopropargyl)-7-chloro-benzo-1,2,3-triazin-4-one] | < 20 | < 20 | < 20 | – | – | – | – | – | – | – | – | – |
| – | O=c1c2ccccc2nnn1CC#CI [Active compound A, 3-(3-Iodopropargyl)-benzo-1,2,3-triazin-4-one] | 5 (≈ 16.1 µM) | < 20 | 5 (≈ 16.1 µM) | 5 (≈ 16.1 µM) | 10 (≈ 32.1 µM) | 5 (≈ 16.1 µM) | 5 (≈ 16.1 µM) | very good mould-resistant paint films | very good mould-resistant paint films | 2 (≈ 6.43 µM) | 3.5 (≈ 11.3 µM) | 0.5 (≈ 1.61 µM) |
| – | CCCCNC(=O)OCC#CI [Active compound D, iodopropargyl N-butyl-carbamate, reference compound] | 40 (≈ 142 µM) | 60 (≈ 213 µM) | 80 (≈ 285 µM) | – | 140 (≈ 498 µM) | – | – | – | – | – | – | – |
| 20 (≈ 56.2 µM) | O=c1c2cc([N+](=O)[O-])ccc2nnn1CC#CI [Active compound B, 3-(3-Iodopropargyl)-6-nitro-benzo-1,2,3-triazin-4-one] | < 20 | < 20 | < 20 | – | – | – | – | – | – | – | – | – |
